Key:
Assay in all cases: binding to AX14596 beads (HeLa lysate, SILAC MS)
SNRPE = SNRPE (Homo sapiens, UniProt P62304)
[1] = molecular target: p38a (MAPK14, IPI00221141) (Homo sapiens, UniProt Q16539)
PKD2 (PRKD2) = PKD2 (PRKD2) (Homo sapiens, UniProt Q9BZL6)
PKD3 (PRKD3) = molecular target: T1, PKD3 (PRKD3) (Homo sapiens, UniProt O94806)
T1 construct: endogenous in cells; host or cells: HeLa S3

ACAD10 = molecular target: T2, ACAD10 (Homo sapiens, UniProt Q6JQN1)
T2 sequence (Q6JQN1 1-1059): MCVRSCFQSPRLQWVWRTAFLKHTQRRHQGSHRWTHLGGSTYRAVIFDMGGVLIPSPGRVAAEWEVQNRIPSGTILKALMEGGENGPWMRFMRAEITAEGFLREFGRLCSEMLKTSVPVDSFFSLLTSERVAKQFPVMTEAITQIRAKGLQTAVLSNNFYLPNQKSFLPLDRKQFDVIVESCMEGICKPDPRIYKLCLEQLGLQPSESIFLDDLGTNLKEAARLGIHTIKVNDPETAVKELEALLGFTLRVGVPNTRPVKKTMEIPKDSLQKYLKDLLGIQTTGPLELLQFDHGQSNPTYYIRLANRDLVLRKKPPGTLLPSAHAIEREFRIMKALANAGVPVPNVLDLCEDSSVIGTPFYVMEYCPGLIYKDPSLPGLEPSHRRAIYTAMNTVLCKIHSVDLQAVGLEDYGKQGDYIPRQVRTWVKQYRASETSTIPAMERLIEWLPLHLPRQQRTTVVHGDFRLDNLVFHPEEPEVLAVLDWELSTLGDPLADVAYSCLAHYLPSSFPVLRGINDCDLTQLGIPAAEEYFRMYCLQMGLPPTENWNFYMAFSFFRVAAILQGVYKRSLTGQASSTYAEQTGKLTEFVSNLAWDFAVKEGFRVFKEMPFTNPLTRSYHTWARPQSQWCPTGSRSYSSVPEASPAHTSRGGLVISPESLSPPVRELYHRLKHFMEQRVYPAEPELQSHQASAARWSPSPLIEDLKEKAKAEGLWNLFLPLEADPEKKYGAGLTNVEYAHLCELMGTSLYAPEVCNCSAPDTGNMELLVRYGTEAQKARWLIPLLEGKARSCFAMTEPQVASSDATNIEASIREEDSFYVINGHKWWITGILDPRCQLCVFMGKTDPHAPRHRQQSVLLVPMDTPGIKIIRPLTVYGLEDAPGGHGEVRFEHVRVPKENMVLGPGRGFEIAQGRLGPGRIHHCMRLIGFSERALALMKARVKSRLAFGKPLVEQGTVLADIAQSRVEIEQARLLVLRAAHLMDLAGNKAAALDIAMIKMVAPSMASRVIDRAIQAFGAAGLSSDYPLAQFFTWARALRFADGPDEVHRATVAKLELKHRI

MET = MET (Homo sapiens, UniProt P08581)
Sequence of MET (P08581 25-1390): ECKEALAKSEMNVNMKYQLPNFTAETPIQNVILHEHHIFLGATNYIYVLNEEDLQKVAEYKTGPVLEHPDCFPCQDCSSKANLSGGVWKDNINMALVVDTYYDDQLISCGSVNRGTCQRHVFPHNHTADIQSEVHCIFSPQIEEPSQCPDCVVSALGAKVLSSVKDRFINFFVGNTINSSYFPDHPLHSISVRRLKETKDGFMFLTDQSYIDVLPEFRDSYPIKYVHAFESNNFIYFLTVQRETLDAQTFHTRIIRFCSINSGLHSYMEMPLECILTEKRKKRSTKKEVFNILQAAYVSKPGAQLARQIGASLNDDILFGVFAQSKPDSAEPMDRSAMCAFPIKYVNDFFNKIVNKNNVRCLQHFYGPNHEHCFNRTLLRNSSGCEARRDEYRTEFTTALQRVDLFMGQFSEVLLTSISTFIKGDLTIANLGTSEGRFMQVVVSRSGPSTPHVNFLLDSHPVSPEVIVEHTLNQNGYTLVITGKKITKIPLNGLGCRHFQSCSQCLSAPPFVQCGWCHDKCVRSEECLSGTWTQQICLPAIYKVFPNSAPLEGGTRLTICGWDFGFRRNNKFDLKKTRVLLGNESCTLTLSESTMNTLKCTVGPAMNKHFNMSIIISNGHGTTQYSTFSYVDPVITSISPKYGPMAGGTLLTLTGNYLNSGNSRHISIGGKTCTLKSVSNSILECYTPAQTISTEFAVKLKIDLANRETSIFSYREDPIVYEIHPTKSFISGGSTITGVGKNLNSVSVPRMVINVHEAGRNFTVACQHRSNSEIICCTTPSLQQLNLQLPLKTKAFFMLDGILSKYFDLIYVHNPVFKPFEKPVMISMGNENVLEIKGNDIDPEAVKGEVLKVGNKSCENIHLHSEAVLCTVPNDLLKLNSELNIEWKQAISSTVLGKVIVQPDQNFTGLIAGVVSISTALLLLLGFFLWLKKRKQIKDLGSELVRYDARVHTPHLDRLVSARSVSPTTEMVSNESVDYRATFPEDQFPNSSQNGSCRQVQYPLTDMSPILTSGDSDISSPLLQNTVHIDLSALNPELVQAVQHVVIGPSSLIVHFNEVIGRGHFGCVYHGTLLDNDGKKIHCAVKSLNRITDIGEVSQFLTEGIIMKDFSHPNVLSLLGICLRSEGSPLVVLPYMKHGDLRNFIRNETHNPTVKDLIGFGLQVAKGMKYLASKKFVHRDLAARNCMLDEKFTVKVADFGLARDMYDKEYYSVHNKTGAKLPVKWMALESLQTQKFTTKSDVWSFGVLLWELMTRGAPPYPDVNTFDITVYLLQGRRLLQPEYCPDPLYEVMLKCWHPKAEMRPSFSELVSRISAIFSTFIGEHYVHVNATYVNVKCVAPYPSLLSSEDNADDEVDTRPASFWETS

JNK2 (MAPK9) = JNK2 (MAPK9) (Homo sapiens, UniProt P45984)
Sequence of JNK2 (MAPK9) (P45984 whole entry): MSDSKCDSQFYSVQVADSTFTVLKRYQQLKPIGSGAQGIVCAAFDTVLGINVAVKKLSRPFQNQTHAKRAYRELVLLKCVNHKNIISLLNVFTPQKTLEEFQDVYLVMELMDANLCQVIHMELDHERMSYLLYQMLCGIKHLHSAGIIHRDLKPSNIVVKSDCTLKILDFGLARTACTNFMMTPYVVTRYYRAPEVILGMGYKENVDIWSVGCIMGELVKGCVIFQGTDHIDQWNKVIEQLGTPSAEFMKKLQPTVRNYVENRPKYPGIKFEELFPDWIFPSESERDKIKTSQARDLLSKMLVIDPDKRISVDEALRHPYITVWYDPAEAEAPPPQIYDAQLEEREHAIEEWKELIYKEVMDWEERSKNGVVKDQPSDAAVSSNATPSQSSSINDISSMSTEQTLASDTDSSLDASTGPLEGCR

Sequence of SNRPE (P62304 whole entry): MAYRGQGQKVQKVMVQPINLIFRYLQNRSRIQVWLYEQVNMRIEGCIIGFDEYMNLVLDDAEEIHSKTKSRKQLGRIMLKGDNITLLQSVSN
Sequence of p38a (MAPK14, IPI00221141) (Q16539 1-360 isoform Q16539-2): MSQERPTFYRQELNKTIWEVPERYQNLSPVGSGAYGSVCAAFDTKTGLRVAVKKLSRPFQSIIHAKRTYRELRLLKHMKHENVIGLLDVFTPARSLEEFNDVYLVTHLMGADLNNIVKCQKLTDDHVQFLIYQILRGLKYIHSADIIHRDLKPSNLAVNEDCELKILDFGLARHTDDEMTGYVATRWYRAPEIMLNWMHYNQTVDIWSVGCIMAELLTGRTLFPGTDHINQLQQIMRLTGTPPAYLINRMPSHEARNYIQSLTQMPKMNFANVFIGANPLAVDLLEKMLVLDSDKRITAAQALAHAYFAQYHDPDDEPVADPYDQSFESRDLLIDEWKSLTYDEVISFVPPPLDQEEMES
T1 sequence (O94806 whole entry): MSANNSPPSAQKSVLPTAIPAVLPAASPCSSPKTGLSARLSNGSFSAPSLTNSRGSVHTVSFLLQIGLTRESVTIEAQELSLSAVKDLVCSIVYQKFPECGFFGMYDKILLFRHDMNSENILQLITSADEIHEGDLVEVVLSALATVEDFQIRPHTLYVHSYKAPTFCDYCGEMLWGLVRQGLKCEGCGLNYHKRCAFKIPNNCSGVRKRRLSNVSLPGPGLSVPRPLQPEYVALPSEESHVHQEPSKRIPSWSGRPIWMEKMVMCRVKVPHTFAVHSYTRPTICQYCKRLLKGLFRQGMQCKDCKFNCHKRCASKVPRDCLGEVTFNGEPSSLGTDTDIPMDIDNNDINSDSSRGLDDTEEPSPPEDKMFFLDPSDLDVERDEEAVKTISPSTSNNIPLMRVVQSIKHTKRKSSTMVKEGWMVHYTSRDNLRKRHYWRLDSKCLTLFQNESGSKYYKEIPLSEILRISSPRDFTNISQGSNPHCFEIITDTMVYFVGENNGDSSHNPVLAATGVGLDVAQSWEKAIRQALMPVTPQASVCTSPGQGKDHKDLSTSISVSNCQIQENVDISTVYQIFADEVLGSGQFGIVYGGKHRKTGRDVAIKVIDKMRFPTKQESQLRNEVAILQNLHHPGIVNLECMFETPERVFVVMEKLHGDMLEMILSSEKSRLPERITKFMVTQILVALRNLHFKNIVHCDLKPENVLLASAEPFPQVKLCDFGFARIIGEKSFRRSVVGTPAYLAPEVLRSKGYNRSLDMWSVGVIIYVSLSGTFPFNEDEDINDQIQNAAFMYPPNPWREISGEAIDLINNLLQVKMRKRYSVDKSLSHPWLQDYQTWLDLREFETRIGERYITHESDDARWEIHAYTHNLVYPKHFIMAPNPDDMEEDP
Sequence of PKD2 (PRKD2) (Q9BZL6 whole entry): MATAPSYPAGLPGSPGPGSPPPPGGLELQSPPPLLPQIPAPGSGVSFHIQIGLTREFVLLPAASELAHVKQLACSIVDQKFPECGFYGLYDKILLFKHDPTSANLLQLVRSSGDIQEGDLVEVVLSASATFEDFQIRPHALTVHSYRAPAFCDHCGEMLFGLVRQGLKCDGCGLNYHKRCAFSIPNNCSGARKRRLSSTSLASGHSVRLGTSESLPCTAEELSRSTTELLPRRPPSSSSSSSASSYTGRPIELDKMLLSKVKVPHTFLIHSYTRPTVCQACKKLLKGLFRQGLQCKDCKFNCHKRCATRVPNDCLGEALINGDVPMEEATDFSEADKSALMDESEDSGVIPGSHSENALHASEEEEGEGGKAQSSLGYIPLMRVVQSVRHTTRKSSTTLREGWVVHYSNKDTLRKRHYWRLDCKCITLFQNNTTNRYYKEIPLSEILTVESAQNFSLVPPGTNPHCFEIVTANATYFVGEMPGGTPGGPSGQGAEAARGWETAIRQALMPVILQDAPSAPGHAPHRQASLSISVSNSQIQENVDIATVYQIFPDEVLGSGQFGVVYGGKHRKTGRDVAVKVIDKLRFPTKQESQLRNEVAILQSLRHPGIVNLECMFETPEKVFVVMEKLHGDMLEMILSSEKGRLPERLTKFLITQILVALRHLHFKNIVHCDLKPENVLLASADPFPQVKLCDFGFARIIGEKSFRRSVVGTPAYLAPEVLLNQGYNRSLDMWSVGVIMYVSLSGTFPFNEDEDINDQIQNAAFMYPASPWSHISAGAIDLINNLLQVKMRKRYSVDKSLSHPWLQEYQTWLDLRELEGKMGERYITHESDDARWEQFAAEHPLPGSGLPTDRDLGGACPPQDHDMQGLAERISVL

COc1cc2ncnc(Nc3ccc(F)c(Cl)c3)c2cc1OCCCN [AX14596]
Ki (SNRPE): 106 µM
r (3 mg/1 mg lysate) (SNRPE): 2.57
r (5 h/2.5 h inc. time) (SNRPE): 1.88
rAVERAGE (2. inc/1. inc) (SNRPE): 0.51
rAVERAGE (control/1. inc) (SNRPE): 0.07
Ki [1]: 168 µM
r (3 mg/1 mg lysate) [1]: 2.87
rAVERAGE (2. inc/1. inc) [1]: 0.63
rAVERAGE (control/1. inc) [1]: 0.03
Ki (PKD2 (PRKD2)): 385 µM
r (3 mg/1 mg lysate) (PKD2 (PRKD2)): 2.53
r (5 h/2.5 h inc. time) (PKD2 (PRKD2)): 0.96
rAVERAGE (2. inc/1. inc) (PKD2 (PRKD2)): 0.79
rAVERAGE (control/1. inc) (PKD2 (PRKD2)): 0.08
Ki (PKD3 (PRKD3)): 1510 µM
r (3 mg/1 mg lysate) (PKD3 (PRKD3)): 2.49
r (5 h/2.5 h inc. time) (PKD3 (PRKD3)): 1.05
rAVERAGE (2. inc/1. inc) (PKD3 (PRKD3)): 0.94
rAVERAGE (control/1. inc) (PKD3 (PRKD3)): 0.08
Ki (ACAD10): 108 µM
r (3 mg/1 mg lysate) (ACAD10): 8.45
r (5 h/2.5 h inc. time) (ACAD10): 0.48
rAVERAGE (2. inc/1. inc) (ACAD10): 0.52
rAVERAGE (control/1. inc) (ACAD10): 0.08
Ki (MET): 267 µM
r (3 mg/1 mg lysate) (MET): 2.30
r (5 h/2.5 h inc. time) (MET): 1.12
rAVERAGE (2. inc/1. inc) (MET): 0.73
rAVERAGE (control/1. inc) (MET): 0.06
% BOUND (MET; bound to AX14596 beads): 27%
Ki (JNK2 (MAPK9)): 110 µM
r (3 mg/1 mg lysate) (JNK2 (MAPK9)): 2.58
r (5 h/2.5 h inc. time) (JNK2 (MAPK9)): 0.95
rAVERAGE (2. inc/1. inc) (JNK2 (MAPK9)): 0.52
rAVERAGE (control/1. inc) (JNK2 (MAPK9)): 0.03
% BOUND (JNK2 (MAPK9); bound to AX14596 beads): 48%

— patent US8959984B2, “Proteome-wide quantification of small molecule binding to cellular target proteins” (priority 2007, dated 2015)
